Experimental findings from patent US5190922A (priority 1991, dated 1993) are described below.

Each structure is given as a SMILES string. pKi: −log10 of the molar value. Where two headings read alike, the source gives them in different places. Non-standard residues stand in square brackets, D forms with d. Residues, ends and D or L forms follow the SMILES beside them. *: point of attachment. NMeF = CN[C@@H](Cc1ccccc1)C(=O)O; Cha = N[C@@H](CC1CCCCC1)C(=O)O; dCha = N[C@H](CC1CCCCC1)C(=O)O; X4 = NCCCN(CCc1ccccc1)*; X3 = N=C(N)NCCCN*; X1 = N#CCCN*

The assay concerns the target T1, C5a Receptor (Homo sapiens, UniProt P21730).
T1 construct: 2.5-25 μg/mL of purified PMNL membrane fragments; from tissue; host or cells: polymorphonuclear leukocyte (PMNL) membrane fragments
T1 sequence (P21730 1-350): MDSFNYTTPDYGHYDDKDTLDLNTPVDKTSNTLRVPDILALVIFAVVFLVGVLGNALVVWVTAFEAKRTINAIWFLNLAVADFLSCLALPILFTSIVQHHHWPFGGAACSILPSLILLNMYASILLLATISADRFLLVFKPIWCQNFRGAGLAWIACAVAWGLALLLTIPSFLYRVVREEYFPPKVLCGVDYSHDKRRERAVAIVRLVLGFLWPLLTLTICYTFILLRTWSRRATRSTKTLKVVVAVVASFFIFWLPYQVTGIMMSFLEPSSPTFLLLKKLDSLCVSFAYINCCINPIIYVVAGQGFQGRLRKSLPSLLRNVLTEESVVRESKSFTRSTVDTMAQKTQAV
As to the kind of experiment: Anaphylatoxin receptor binding Ki determination (inhibition of 125I-C5a binding to PMNL membrane fragments). The protocol:
Specific inhibition of C5 a binding activity of representative compounds of the present invention was measured using 0.03-1 nM ^125 I-C5 a with 2.5-25 μg/mL of purified PMNL membrane fragments (Borregaard, N.; Heiple, J. M.; Simons, E. R.; and Clark, R. A. J. Cell. Biol. 1983, 97, 52-61.). Free and membrane-bound ligand were separated by filtration.

[1] abbreviates: 0.03-1 nM 125I-C5a, 2.5-25 μg/mL purified PMNL membrane fragments, filtration, read-out: Ki (In vitro C5a Receptor Binding Potency).

In turn, `CN[C@@H](Cc1ccccc1)C(=O)N[C@@H](CCCCN)C(=O)N1CCC[C@H]1C(=O)N[C@H](CC1CCCCC1)C(=O)N[C@@H](Cc1ccccc1)C(=O)NCCCNC(=N)N` [Example 201, (N-Methyl)Phenylalanyl-Lysyl-Prolyl-{(2R)-2-Amino-3-cyclohexylpropanoyl}-Phenylalanyl-N-(3-Guanidinopropyl)amide] (H-[NMeF]KP[dCha]F-X3) showed a pKi of 6.16.

On to `N=C(N)NCCC[C@@H](NC[C@H](Cc1ccccc1)NC(=O)[C@@H](CC1CCCCC1)NC(=O)[C@@H]1CCCN1C(=O)[C@H](CCCCN)NC(=O)CCCCc1ccccc1)C(=O)O` [Example 202, {5-Phenylvaleryl}-Lysyl-Prolyl -{(2R)-2-Amino-3-cyclohexylpropanoyl}-Phenylalanyl-.PSI.(CH2 NH)-DArginyl-OH], for which the negative-log Ki (pKi) under setting [1] was 4.28.

As to `CN[C@@H](Cc1ccccc1)C(=O)N[C@@H](CCCCN)C(=O)N1CCC[C@H]1C(=O)N[C@H](CC1CCCCC1)C(=O)N[C@@H](CC1CCCCC1)C(=O)NCCC#N` [Example 223, (N-Methyl)Phenylalanyl-Lysyl-Prolyl-{(2R)-2-Amino-3-cyclohexylpropanoyl}-{(2S)-2-Amino-3-cyclohexylpropanoyl}-N-(2-Cyanoethyl)amide] (H-[NMeF]KP[dCha][Cha]-X1), under setting [1], the negative logarithm of the Ki (pKi) was 5.92.

`CN[C@@H](Cc1ccccc1)C(=O)N[C@@H](CCCCN)C(=O)N1CCC[C@H]1C(=O)N[C@H](CC1CCCCC1)C(=O)N(CCCN)CCc1ccccc1` [Example 225, (N-Methyl)Phenylalanyl-Lysyl-Prolyl-{(2R)-2-Amino-3-cyclohexylpropanoyl}-N-3-Aminopropyl-N-2-Phenethylamide] (H-[NMeF]KP[dCha]-X4): the negative-log Ki (pKi) under setting [1] is 4.34.
